Measurements reported in patent publication USRE44543E1, “Naphthalenic compounds as termite bait toxicants” (priority 2002, dated 2013).

How the values were obtained:
termites [1] = test: Copper naphthenate laboratory study, ARS bait matrix in foraging boxes; format: in vivo, Coptotermes formosanus
Procedure: (§1) For bait matrices with a final concentrations of NHA sodium salt of either 250 ppm or 500 ppm, the following procedure was used. A total of 25 mg or 50 mg, respectively of the NHA sodium salt was weighed using a Mettler balance. The NHA sodium salt complex was placed into a 50 ml sterile screw cap conical tube (#62.547.004; Sarstedt, Newton, N.C.) and dissolved with 40 ml nutritive solution described in Example 2 of U.S. patent application Ser. No. 09/294,499 filed Apr. 20, 1999, hereby incorporated by reference. Under a laminar flow hood, this product was mixed with 27 ml more of sterile nutritional supplement in a 250 ml sterile glass bottle (prepared as reported by M. G. Rojas and J. A. Morales-Ramos, April 2001, “Bait matrix for delivery of chitin synthesis inhibitors to the Formosan subterranean termite [Isoptera: Rhinotermitidae],” J. Econ. Entomol. 94(2) :506-510) hereby incorporated by reference. The bottle was tightly closed with a screw cap and manually shaken for 2 minutes. The mixture was added to 33 g of sterile cellulose as reported by Rojas and Morales-Ramos (2001) supra. The mixture was manually homogenized using a stainless steel spatula. To encase the bait matrix, tubes made of fibrous casing material (#124B; L.E.M. Products, Inc., Miamitown, Ohio) were cut into 150 mm long portions as reported by Rojas and Morales-Ramos (2001) supra. Fifty grams of bait matrix containing NHA sodium salt was compacted into one end of the inlet tube, and the open end and of the inlet tube was closed with a rubber band. The bait casing was placed inside of the foraging box adjacent to a 10 g piece of pine wood, taking care that it was partially covered with sand. Control bait matrix was prepared minus NHA, and presented in the same way as the treatment matrix to Formosan termites taken from three different colonies, with two boxes per locality totaling six boxes of 2500 termites per treatment. (Rojas and Morales-Ramos [2001] supra). All the experimental boxes were maintained under dark conditions at 27±1° C., and 90±2% relative humidity. Observations were done every 72 hours until all the termites died. The time to reach 100% mortality was measured and recorded. Mean comparisons among treatments and control were conducted.
Copper naphthenate (Product No. PS-2028, Chem Service, West Chester, Pa.) was dissolved in 90% warm ethanol at 3 different concentrations of 50, 100 and 200 ppm. The ethanol solution was mixed with the liquid part of the ARS bait matrix (see Example 2) and bait was prepared and presented to the termites as above in Example 1 having 4 repetitions per dose and a control. It was observed that at 50 ppm of chemical, all termites in 50% of the boxes died at about 8 weeks; and termites in 75% of the boxes died at about 10 weeks; at 100 ppm all termites died in the boxes at 8 weeks, and at 200 ppm all termites died in all tested boxes at 8 weeks. All termites in the treatments were dead by week 12.

termites [2] = settings: Grace et al. 1993; cited from earlier work
Reticulitermes spp. = settings: low toxicity baits; cited from earlier work
C. formosanus [3] = settings: low toxicity baits; cited from earlier work
Formosan termites = test: Foraging box bait matrix bioassay, NHA sodium salt (Example 1); format: in vivo, Coptotermes formosanus; settings: 6 boxes of 2500 termite workers
Procedure: as §1

C. formosanus [4] = test: ARS bait matrix bioassay with NHA sodium salt, protocol of Example 1 (Example 2); format: in vivo, Coptotermes formosanus
Procedure: as §1
N-hydroxynaphthyalimide (NHA) which is commercially available as pure chemical, is dissolved in distilled water using a sterile container; At concentrations of 500 ppm, NHA is effective as bait active ingredient taking a mean time to kill C. formosanus in 2½ months in lab conditions. […]

Compound: Copper naphthenate
- week by which all termites in the treatments were dead (termites [1]; 50, 100 and 200 ppm): ≤ 12 week
- Percent colonies of 2500 termite workers alive (termites [1]; 50 ppm, 8 wks after treatment): 50%
- Percent colonies of 2500 termite workers alive (termites [1]; 50 ppm, 10 wks after treatment): 25%
- Percent colonies of 2500 termite workers alive (termites [1]; 50 ppm, 12 wks after treatment): 0%
- boxes in which all termites died (termites [1]; 50 ppm, at about 8 weeks): 50%
- boxes in which all termites died (termites [1]; 50 ppm, at about 10 weeks): 75%
- time at which all termites died in the boxes (termites [1]; 100 ppm): 8 weeks
- Percent colonies of 2500 termite workers alive (termites [1]; 100 ppm, 8 wks after treatment): 0%
- Percent colonies of 2500 termite workers alive (termites [1]; 100 ppm, 10 wks after treatment): 0%
- Percent colonies of 2500 termite workers alive (termites [1]; 100 ppm, 12 wks after treatment): 0%
- time at which all termites died in all tested boxes (termites [1]; 200 ppm): 8 weeks
- acceptance of the bait and time to kill (termites [1]; 200 ppm dose): great variability
- Percent colonies of 2500 termite workers alive (termites [1]; 200 ppm, 8 wks after treatment): 0%
- Percent colonies of 2500 termite workers alive (termites [1]; 200 ppm, 10 wks after treatment): 0%
- Percent colonies of 2500 termite workers alive (termites [1]; 200 ppm, 12 wks after treatment): 0%
- repellence to termites (termites [2]): highly repellent
- toxicity to termites (termites [2]): toxic

Compound: O=C(NC(=O)c1c(F)cccc1F)Nc1ccc(Cl)cc1 [diflubenzuron]
- suppressing colonies (Reticulitermes spp.): particularly effective
- suppressing colonies (C. formosanus [3]): particularly effective

Compound: O=C1c2cccc3cccc(c23)C(=O)N1[O-].[Na+] [NHA-sodium salt, N-hydroxynaphthyalimide Sodium Salt]
- Colonies Alive (Formosan termites; 250 ppm in bait matrix, 1 Month of feeding): 4
- Colonies Alive (Formosan termites; 250 ppm in bait matrix, 2 Months of feeding): 3
- Colonies Alive (Formosan termites; 250 ppm in bait matrix, 2½ Months of feeding): 0
- Colonies Alive (Formosan termites; 500 ppm in bait matrix, 1 Month of feeding): 3
- Colonies Alive (Formosan termites; 500 ppm in bait matrix, 2 Months of feeding): 1
- Colonies Alive (Formosan termites; 500 ppm in bait matrix, 2½ Months of feeding): 0
- repellence to the termites (C. formosanus [4]; 500 ppm): without any signs of repellence
- time to formosan termite mortality (C. formosanus [4]; 500 ppm, preliminary results, dose range 50, 250, 500 ppm): within about two months
- dose at which repellence was observed (C. formosanus [4]; in vivo): higher than 1500 ppm

Compound: O=C(NC(=O)c1c(F)cccc1F)Nc1cc(Cl)c(OC(F)(F)C(F)F)c(Cl)c1 [hexaflumuron]
- suppressing colonies (Reticulitermes spp.): particularly effective
- suppressing colonies (C. formosanus [3]): particularly effective
